# Measured values reported in PubChem BioAssay AID1918939 (Molecular Pharmacology Branch, DTP, NCI, 2023).
# Test system: 653999-131-R-J2-PDC complex spheroid viability
# Experiment: Anticancer human tumor 653999-131-R-J2-PDC patient-derived lung adenocarcinoma cell line growth inhibition
# Conditions: for IC50: curve of first compound; for viability, T/C: stronger effect = lower value
# Description: Multicellular complex tumor spheroid response to LSD1 Inhibitor Iadademstat in combination with a variety of drugs and investigational agents in selected tumor cell lines
# The current study was undertaken to assess response to LSD1 inhibitors in combination with standard-of-care drugs and investigational agents in solid tumor complex spheroid models as well as in the K-562 leukemia. Complex spheroids include a stromal component modeled by human endothelial cells (HUVEC) and fibroblasts modeled by human mesenchymal stem cells (MSCs). The concentration ranges selected for each drug and investigational agent were based upon clinically achievable concentrations if the clinical Cmax of the agent was known.
# Compounds. The drugs and investigational agents used in this study are listed on Table 1. All of the agents used, including staurosporine (NSC755774) and gemcitabine (NSC613327), were obtained from the Developmental Therapeutics Program, NCI. FDA-approved anticancer drugs are available from the NCI at http://dtp.nci.nih.gov/branches/dscb/oncology_drugset_explanation.html. Drugs and investigational agents were >95% pure by proton nuclear magnetic resonance (NMR) and liquid chromatography/mass spectrometry (LC/MS). Stock solutions were prepared at 400x in DMSO, stored at -70 degrees C, and diluted in fresh medium prior to their use. The final concentration of DMSO in cell culture wells never exceeded 0.25% (v/v). The FDA-approved anticancer drug set is available from the Developmental Therapeutics Program at https://dtp.cancer.gov/organization/dscb/obtaining/available_plates.htm. All drugs and investigational agents were tested over a range starting from a high concentration at or near the clinical Cmax and decreasing in half-log increments. If the clinical Cmax for an agent had not been determined, the highest concentration tested was 10 microM.
# Cell Lines. The patient-derived cancer cell (PDC) lines: 292921-168-R-J2-PDC, K24384-001-R-PDC, and 521955-158-R2-J5-PDC pancreatic carcinomas, 556581-035-R-J1 ovarian carcinoma, 324938-238-R-J1-PDC, 855422-203-R-J1-PDC and 883617-216-R-J1-PDC urothelial bladder carcinomas, 743489-274-T-PDC renal cell carcinoma, 138582-R-J1 Merkel cell tumor, K60290-347-R-J1 and K57222-313-R-J1-PDC glioblastomas, 653999-131-R-J2-PDC, LG0703-F948-PDC, and 349418-098-R-PDC non-small cell lung carcinomas, 885512-296-R-J2-PDC, 171881-019-R-J1-PDC breast carcinomas and 186277-243-T-J2-PDC and 233499-124-R-J2-PDC colon carcinomas were obtained from the NCI Patient-Derived Models Repository (PDMR, https://pdmr.cancer.gov). The established cell lines NCI/ADR-RES (RRID:CVCL_14520 and OVCAR-5 (RRID:CVCL_1628) ovarian carcinomas, 786-O (RRID:CVCL_1051) and A498 (RRID:CVCL_A498) renal cell carcinoma, NCI-H211 (ATCC, cat. CRL-5824; RRID:CVCL_1529), NCI-H196 (ATCC, cat. CRL-5823, RRID:CVCL_1509), SW 1271 (ATCC, cat. CRL-2177, RRID:CVCL_1716) and NCI-H1876 (ATCC, cat. CRL-5902, RRID:CVCL_1503) small cell lung carcinomas, MDA-MB-231 (RRID:CVCL_0062) and MDA-MB-468 (RRID:CVCL_0419)breast carcinomas (10-12). Pooled donor human umbilical vein endothelial cells (HUVEC, Lonza, cat. CC-2519) and human mesenchymal stem cells (hMSC, Lonza, cat. PT-2501) were purchased from Lonza (Walkersville, MD).
# Cell Culture. All cells were maintained in an incubator at 37 degrees C and 5% CO2 with 95% humidity. The PDC lines were cultured according to standard operating procedures established by the NCI PDMR (https://pdmr.cancer.gov). Briefly all PDCs were thawed and cultured in Matrigel-coated flasks prepared with a working solution of 1X Ham's F-12 nutrient mix, without supplementation (Invitrogen, Waltham, MA, cat. 11765054), 100 U/mL penicillin-streptomycin (Invitrogen, cat. 15140122), and 2.5% Matrigel (Corning Inc., Corning, NY, cat. 354248) for the first three passages. […]
# [1] = second compound 0.1 µM, first compound 0.000949 µM
# [2] = second compound 0.1 µM, first compound 0.003 µM
# [3] = second compound 0.1 µM, first compound 0.00949 µM
# [4] = second compound 0.1 µM, first compound 0.03 µM
# [5] = second compound 0.1 µM, first compound 0.0949 µM
# [6] = second compound 0.1 µM, first compound 0.3 µM
# [7] = second compound 0.316 µM, first compound 0.000949 µM
# [8] = second compound 0.316 µM, first compound 0.003 µM
# [9] = second compound 0.316 µM, first compound 0.00949 µM
# [10] = second compound 0.316 µM, first compound 0.03 µM
# [11] = second compound 0.316 µM, first compound 0.0949 µM
# [12] = second compound 0.316 µM, first compound 0.3 µM
# [13] = second compound 1 µM, first compound 0.000949 µM
# [14] = second compound 1 µM, first compound 0.003 µM
# [15] = second compound 1 µM, first compound 0.00949 µM
# [16] = second compound 1 µM, first compound 0.03 µM
# [17] = second compound 1 µM, first compound 0.0949 µM
# [18] = second compound 1 µM, first compound 0.3 µM
# [19] = second compound 3.16 µM, first compound 0.000949 µM
# [20] = second compound 3.16 µM, first compound 0.003 µM
# [21] = second compound 3.16 µM, first compound 0.00949 µM
# [22] = second compound 3.16 µM, first compound 0.03 µM
# [23] = second compound 3.16 µM, first compound 0.0949 µM
# [24] = second compound 3.16 µM, first compound 0.3 µM
# [25] = second compound 10 µM, first compound 0.000949 µM
# [26] = second compound 10 µM, first compound 0.003 µM
# [27] = second compound 10 µM, first compound 0.00949 µM
# [28] = second compound 10 µM, first compound 0.03 µM
# [29] = second compound 10 µM, first compound 0.0949 µM
# [30] = second compound 10 µM, first compound 0.3 µM
# 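Also: spheroids exposed to agents for seven days before readout.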
SMILES,IC50 (second compound 0.1 µM) [nM],IC50 (second compound 0.316 µM) [nM],IC50 (second compound 1 µM) [nM],IC50 (second compound 3.16 µM) [nM],IC50 (second compound 10 µM) [nM],"viability, T/C [1] [%]","viability, T/C [2] [%]","viability, T/C [3] [%]","viability, T/C [4] [%]","viability, T/C [5] [%]","viability, T/C [6] [%]","viability, T/C [7] [%]","viability, T/C [8] [%]","viability, T/C [9] [%]","viability, T/C [10] [%]","viability, T/C [11] [%]","viability, T/C [12] [%]","viability, T/C [13] [%]","viability, T/C [14] [%]","viability, T/C [15] [%]",other results
CCc1c2c(nc3ccc(O)cc13)-c1cc3c(c(=O)n1C2)COC(=O)[C@]3(O)CC + NC1CC1c1ccc(-c2cccc(O)c2)cc1,< 0.949,< 0.949,< 0.949,< 0.949,< 0.949,27.2,18,11.7,5.92,6.24,9.54,27.7,21,11.2,5.65,6.29,9.28,25.6,19.9,10.6,"viability, T/C [16]: 5.85%; viability, T/C [17]: 6.63%; viability, T/C [18]: 10.5%; viability, T/C [19]: 21.4%; viability, T/C [20]: 17.2%; viability, T/C [21]: 10.3%; viability, T/C [22]: 5.97%; viability, T/C [23]: 7.51%; viability, T/C [24]: 9.23%; viability, T/C [25]: 23.3%; viability, T/C [26]: 13.5%; viability, T/C [27]: 12.3%; viability, T/C [28]: 6.19%; viability, T/C [29]: 4.83%; viability, T/C [30]: 9.59%"
Nc1ccn(C2OC(CO)C(O)C2(F)F)c(=O)n1 (stereo not given) + NC1CC1c1ccc(-c2cccc(O)c2)cc1,133,37.9,24.9,68.3,> 300,105,92.4,67.2,61.3,43.6,52.2,82.1,77.2,75.6,51.2,43.5,47,75.1,80.9,64.7,"viability, T/C [16]: 48.6%; viability, T/C [17]: 45.2%; viability, T/C [18]: 44.9%; viability, T/C [19]: 83.4%; viability, T/C [20]: 74.1%; viability, T/C [21]: 63.4%; viability, T/C [22]: 57.4%; viability, T/C [23]: 47.3%; viability, T/C [24]: 39.7%; viability, T/C [25]: 76%; viability, T/C [26]: 70.8%; viability, T/C [27]: 68.9%; viability, T/C [28]: 53.1%; viability, T/C [29]: 55.4%; viability, T/C [30]: 51.5%"
